# Results from patent US20180133194A1, “METHOD OF TREATING INFLAMMATION USING NATURAL COMPOUNDS AND/OR DIET” (UNIVERSITY OF FLORIDA RESEARCH FOUNDATION, INCORPORATED, priority 2015, published 2018).
# How the values were obtained:
# inflammatory cytokines = test: Cytokine array (RodentMAP) on plasma in paclitaxel-induced model of inflammation; type: in vivo, mice; details: compared to control; for macrophage-derived chemokine [MDC/CCL22] level: paclitaxel alone
# Experimental: FIG. 1. Using a drug induced model of inflammation, a cytokine array was used to measure inflammatory cytokines, immune system alteration and the ability of our treatment to attenuate and re-establish normal status. Plasma was isolated from mice treated with the different treatments (control, paclitaxel [PTX, 40 mg/kg], NU.001[CS] and PTX+NU.001[PTX+CS]). * indicates p<0.05 and ** indicates p<0.01, one-way ANOVA or t-test, compared to control. # indicates p<0.05 and ## indicates p<0.01, one-way ANOVA or t-test, compared to PTX.
# FIG. 2. NU.001 reduces inflammatory signals in a drug-induced model of inflammation. Animals received oral delivery of NU.001 for 3-4 weeks or a control diet. The microtubule stabilizing agent paclitaxel [40 mg/kg cumulative] was administered to induce inflammation. A cytokine array was used to measure inflammation and immune system status and assess the ability of NU.001 to attenuate or re-establish normal cytokine levels. Plasma was isolated from mice treated with the different treatments (control, paclitaxel, NU.001, and paclitaxel+NU.001). […] Treatment composition is as follows: [1] Control=55% carbohydrates, 30% proteins, 15% fat, [2]
# FIGS. 4A-4B. NU.001 increases levels of Leukemia inhibitory factor [LIF] and CCL22. A. After being fed for 3-4 weeks with control diet or NU.001 diet, plasma was isolated for cytokine screening. […] LIF has been proposed to prevent or treat peripheral neuropathy. *, p <0.05, t-test.
# The chemotherapeutic agent paclitaxel was used to induce inflammation. Animals were stressed by treating with paclitaxel [40 mg/kg cumulative], resulting in changes in a number of cytokines and related molecules involved in inflammation processes. Animals were treated with NU.001 for 3-4 weeks and blood was taken for plasma isolation. A panel of cytokines was screened using RodentMAP [Myriad/RBM].
# Levels of Leukemia inhibitory factor (LIF) were compared in animals treated with control diet or NU.001 diets. After 4 weeks of treatment, blood was taken and plasma was isolated to measure levels of cytokines. […]
# [1] = in vivo; cited from earlier work
# hypoxic-ischemic injury = details: neonatal rat, cited from earlier work
# [2] = cited from earlier work
# [3] = oral doses as high as 500 mg/kg, rodents; cited from earlier work
# [4] = 500 mg/kg/day, divided dosage, 13 weeks, pre-fed dogs; cited from earlier work
compound,measurement,setting,value
CC(=O)O[C@H]1C(=O)[C@@]2(C)[C@H]([C@H](OC(=O)c3ccccc3)[C@]3(O)C[C@H](OC(=O)[C@H](O)[C@@H](NC(=O)c4ccccc4)c4ccccc4)C(C)=C1C3(C)C)[C@]1(OC(C)=O)CO[C@@H]1C[C@@H]2O [paclitaxel],inflammation related cytokines,inflammatory cytokines; paclitaxel 40 mg/kg cumulative alone,up-regulated
same,macrophage-derived chemokine [MDC/CCL22] level,inflammatory cytokines,Lower levels
same,macrophage-derived chemokine [MDC/CCL22] level,inflammatory cytokines; listed as Paclitaxel,decrease
"C[S+]([O-])CCCCN=C=S (stereo not drawn) [SFN, sulforaphane]",terminal elimination phase,[1],long
same,time to peak plasma levels,[1],≤ 2 h
same,infarct ratio,hypoxic-ischemic injury; at 24 hours after hypoxic ischemia,reduced
same,expression of Nrf2 antioxidative transcription factor in the brain,hypoxic-ischemic injury; hypoxic-ischemic injury,increased
same,number of apoptotic cells,hypoxic-ischemic injury; hypoxic-ischemic injury,significantly decreased
same,safety of dose,[2]; 100 mg SFN from oral intake of 68 grams of broccoli sprouts,safe non-toxic
same,adverse effects of administration in humans,[2]; SFN or SFN-enriched dietary origin items such as broccoli sprouts,not demonstrated any significant adverse effects
epigallocatechin-3-gallate [EGCG],genotoxicity and short term toxicity,[3],no genotoxic or short term toxicity
same,adverse events or toxicity,[4],no adverse events or toxicity
